These results are taken from article PMC8766924 (Angewandte Chemie (International ed. in English), 2021).

Experiment [1] has as its system Y5R. In words: Calcium flux assay of NPY analogs. It is filed as cell-based. The conditions noted are these: Figure 3B-C, at least two independent experiments in triplicates.
For experiment [2], the system named is Y5R. The conditions noted are these: still binds Y5R but not other Y receptors; cited from earlier work.
For another experiment, the target named is T1, A^4.67-Y5R (Homo sapiens, UniProt Q15761, V181A).
T1 sequence (Q15761 1-445 V181A): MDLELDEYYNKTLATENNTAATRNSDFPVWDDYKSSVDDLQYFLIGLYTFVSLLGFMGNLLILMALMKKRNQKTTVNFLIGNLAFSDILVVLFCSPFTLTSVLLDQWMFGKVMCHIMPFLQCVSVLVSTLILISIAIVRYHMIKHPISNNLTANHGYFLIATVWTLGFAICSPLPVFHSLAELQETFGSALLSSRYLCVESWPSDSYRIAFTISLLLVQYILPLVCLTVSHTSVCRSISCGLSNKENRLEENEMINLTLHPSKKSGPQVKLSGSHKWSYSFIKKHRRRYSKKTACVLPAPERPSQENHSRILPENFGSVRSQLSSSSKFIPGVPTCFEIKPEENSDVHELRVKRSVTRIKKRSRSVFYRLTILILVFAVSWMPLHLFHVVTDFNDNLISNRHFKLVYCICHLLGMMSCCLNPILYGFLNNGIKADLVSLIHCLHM
It is filed as cell-based. The conditions noted are these: Figure 6C; transiently transfected COS-7.

“W^36-NPY: NPY with Y^36 substituted by Trp”: the “Potency loss at wt Y5R compared to NPY” value with Y5R [1] amounted to 2 fold. On to “T32P-NPY: NPY with Thr32 substituted to Pro”, for which the “Receptor selectivity” value with Y5R [2] is “selective Y5R agonist”. Take “A^28-NPY: NPY analog carrying Ala at position 28”: the “Potency at A^4.67-Y5R compared to wt NPY” value with A^4.67-Y5R is reported as “lower potency”. As for “[Y^36A]-NPY: NPY with Y^36 substituted by Ala”, the “Potency loss at wt Y5R compared to NPY” value in the experiment with Y5R [1] was 43 fold.
